The source made the active and inactive calls.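 How the source made its calls: active means toxicity graded low, moderate or high, meaning less radioactive sulfur built into protein than in solvent-only controls; inactive means the rest.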
Each compound was assayed on HeLa, 35S-Met/Cys protein incorporation toxicity, 3 h (assay: HeLa cytotoxicity by protein synthesis, late-stage follow-up, cytotoxicity control for PMI inhibitor project, HeLa cells (AID 1620)).

Row | SMILES | outcome
1 | O=c1c2ccccc2sn1-c1ccc(Cl)cc1 | active; highly toxic
2 | Cc1ccc(N=c2ssnc2Cl)c([N+](=O)[O-])c1 | active; low toxicity
3 | Clc1nssc1=Nc1ccc(Br)cc1 | active; high toxicity
4 | O=c1c2ccccc2sn1-c1ccc(F)cc1 | active; moderate toxicity
5 | CN(C)c1ccc(N=c2ssnc2Cl)cc1 | active; moderate toxicity
6 | COc1ccc(OC)c(N=c2ssnc2Cl)c1 | inactive; no toxicity
7 | O=c1c2ccccc2sn1-c1cccc(Cl)c1 | active; highly toxic
8 | S=c1nc(-c2cccc(Br)c2)[nH][nH]1 | inactive; no toxicity
9 | Clc1ccc(N=c2ssnc2Cl)cc1Cl | active; highly toxic
10 | O=c1c2ccccc2sn1-c1cc(S(=O)(=O)N2CCOCC2)ccc1N1CCCC1 | active; moderate toxicity
11 | O=C(O)CCn1cc(C=C2C(=O)NC(=S)NC2=O)c(-c2cccc(Br)c2)n1 | inactive; no toxicity
12 | O=C1c2ccccc2SC1c1ccccc1 (stereo not drawn) | active; low toxicity
13 | S=c1nc(-c2cccc(Cl)c2)[nH][nH]1 | inactive; no toxicity
14 | O=[N+]([O-])c1ccc(N=c2ssnc2Cl)c2ccccc12 | active; low toxicity
15 | O=c1c2ccccc2sn1-c1cccc(S(=O)(=O)Nc2ccc(Cl)cc2)c1 | active; moderate toxicity
16 | CN(C)c1cccc(-n2sc3ccccc3c2=O)c1 | inactive; no toxicity
17 | O=c1c2ccccc2sn1-c1ccccc1 | inactive; no toxicity
18 | O=c1c2cc(F)ccc2sn1-c1ccccc1 | active; moderate toxicity
19 | Cc1ccc(C)c(-n2sc3ccc(F)cc3c2=O)c1 | active; moderate toxicity
20 | Cc1ccc(N=c2ssnc2Cl)cc1[N+](=O)[O-] | active; moderate toxicity
21 | OCc1ccccc1N=c1ssnc1Cl | inactive; no toxicity

Row | SMILES | outcome
22 | O=c1c2c([N+](=O)[O-])cc([N+](=O)[O-])cc2sn1-c1ccc(F)c(Cl)c1 | inactive; no toxicity
23 | Cc1ccc(N=c2ssnc2Cl)nc1 | active; highly toxic
24 | Oc1ccc(N=c2ssnc2Cl)cc1 | inactive; no toxicity
25 | Cc1c(Cl)cccc1-n1sc2cc([N+](=O)[O-])cc(OCC(F)(F)F)c2c1=O | active; low toxicity
26 | O=c1c2ccc(O)cc2sn1C1CCCC1 | inactive; no toxicity
27 | Cc1[nH]n(-c2ccccc2)c(=S)c1C=Nc1cccc([N+](=O)[O-])c1 | inactive; no toxicity
28 | COc1ccc(-c2nc(=S)[nH][nH]2)cc1OC | inactive; no toxicity
29 | Cc1ccc(-n2sc3ccccc3c2=O)cc1S(=O)(=O)N1CCCCC1 | active; moderate toxicity
30 | O=c1c2ccccc2sn1-c1ccc(Cl)c(S(=O)(=O)N2CCOCC2)c1 | active; moderate toxicity
31 | FC(F)(F)c1ccc(N=c2ssnc2Cl)cc1 | active; moderate toxicity
32 | Clc1ccc(N=c2ssnc2Cl)cc1 | active; highly toxic
33 | Clc1nss/c1=N\c1nc2ccccc2s1 | active; highly toxic
34 | Clc1ccc(Nc2ccccc2N=c2ssnc2Cl)cc1 | active; highly toxic
35 | O=c1c2ccc(F)cc2sn1-c1cc(Cl)ccc1Cl | active; highly toxic
36 | Nc1ccccc1N=c1ssnc1Cl | inactive; no toxicity
37 | CN(C)c1cccc(N=c2ssnc2Cl)c1 | active; highly toxic
38 | COc1cccc(-n2sc3ccccc3c2=O)c1 | active; low toxicity
39 | O=c1c2c([N+](=O)[O-])cc([N+](=O)[O-])cc2sn1-c1ccccc1F | active; low toxicity
40 | Cc1ccc(C)c(-n2[nH]c3ccccc3c2=O)c1 | inactive; no toxicity
41 | CCc1cc(CC)c(N=c2ssnc2Cl)c(CC)c1 | active; highly toxic
42 | O=c1c2ccccc2sn1-c1cccc(I)c1 | active; highly toxic

Row | SMILES | outcome
43 | Cc1cccc(N=c2ssnc2Cl)c1 | active; moderate toxicity
44 | Clc1nss/c1=N\c1nccs1 | inactive; no toxicity
45 | COc1cc(N=c2ssnc2Cl)cc(OC)c1 | inactive; no toxicity
46 | O=C(O)c1ccccc1NS(=O)(=O)c1cccc(-n2sc3ccccc3c2=O)c1 | active; high toxicity
47 | O=c1c2ccccc2sn1-c1nccs1 | inactive; no toxicity
48 | Clc1nssc1=Nc1ccccc1 | inactive; no toxicity
49 | Clc1nss/c1=N\c1nncs1 | active; moderate toxicity
50 | COc1ccc(N=c2ssnc2Cl)cc1OC | active; highly toxic
51 | Cc1ccc(C=Nn2c(-c3ccncc3)n[nH]c2=S)cc1 | inactive; no toxicity
52 | O=C(NCc1ccccc1)c1cccc(-n2sc3ccccc3c2=O)c1 | inactive; no toxicity
53 | O=c1c2ccccc2sn1-c1cccc(C(F)(F)F)c1 | active; highly toxic
54 | CC(C)(C)c1ccc(N=c2ssnc2Cl)cc1 | active; moderate toxicity
55 | Cc1ccc(C)c(N2Cc3ccccc3C2=O)c1 | active; low toxicity
56 | O=c1c2ccccc2sn1-c1cc(S(=O)(=O)N2CCOCC2)ccc1N1CCOCC1 | active; moderate toxicity
57 | Cc1cccc(-n2sc3ccccc3c2=O)c1 | active; moderate toxicity
58 | COc1cc(-c2nc(=S)[nH][nH]2)cc(OC)c1OC | inactive; no toxicity
59 | S=c1nc(-c2ccccc2Br)[nH][nH]1 | inactive; no toxicity
60 | Cc1ccc(C)n1-c1nc(=S)[nH][nH]1 | inactive; no toxicity
61 | O=c1c2c([N+](=O)[O-])cc([N+](=O)[O-])cc2sn1-c1ccc(F)cc1 | active; low toxicity
62 | CN(C)S(=O)(=O)c1cccc(-n2sc3ccccc3c2=O)c1 | active; moderate toxicity
63 | COc1ccc(-c2nc(=S)[nH][nH]2)cc1 | inactive; no toxicity

Row | SMILES | outcome
64 | Cc1ccc(N=c2ssnc2Cl)cc1C | active; moderate toxicity
65 | CCOc1ccc(-c2nc(=S)[nH][nH]2)cc1 | inactive; no toxicity
66 | CCSc1n[nH]c(=S)s1 | inactive; no toxicity
67 | O=C(O)c1cccc(-n2sc3ccccc3c2=O)c1 | active; moderate toxicity
68 | Cc1ccnc(-n2sc3ccccc3c2=O)n1 | inactive; no toxicity
69 | Cc1ccc(C)c(-n2sc3ccccc3c2=O)c1 | active; moderate toxicity
70 | COC(=O)c1cccc(-n2sc3ccccc3c2=O)c1 | active; moderate toxicity
71 | Cc1ccc(C)c(-n2sc3cc(F)ccc3c2=O)c1 | active; high toxicity
72 | COc1cc(N=c2ssnc2Cl)c(OC)cc1Cl | active; low toxicity
73 | N#CC1=C2SCN(Cc3ccccc3)CN2C(=O)CC1c1ccc2c(c1)OCO2 (stereo not drawn) | inactive; no toxicity
74 | Cc1ccc(N=c2ssnc2Cl)cc1 | inactive; no toxicity
75 | Clc1cccc(N=c2ssnc2Cl)c1 | active; low toxicity
76 | COc1cc(N=c2ssnc2Cl)cc(OC)c1OC | inactive; no toxicity
77 | S=c1nc(C2COc3ccccc3O2)[nH][nH]1 (stereo not drawn) | inactive; no toxicity
78 | O=[N+]([O-])c1ccc(N=c2ssnc2Cl)c([N+](=O)[O-])c1 | inactive; no toxicity
79 | O=c1c2ccccc2sn1-c1ccc2ccccc2c1 | active; high toxicity
80 | N#Cc1ccc(N=c2ssnc2Cl)cc1 | inactive; no toxicity
81 | Cc1cccc(-n2sc3cc(F)ccc3c2=O)c1C | active; moderate toxicity
82 | COc1ccc2c(=O)n(C3CCCC3)sc2c1 | inactive; no toxicity
83 | COc1cc([N+](=O)[O-])ccc1N=c1ssnc1Cl | active; moderate toxicity

Reference: PubChem BioAssay AID1620 (Sanford-Burnham Center for Chemical Genomics, 2009)
